ChEMBL document CHEMBL1201862, “PubChem BioAssay data set” (2004)
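Test compounds were applied to cells in 96-well plates for 48 hours at 5 doses. Abbreviation: GI50, concentration required for 50% inhibition of growth.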 Calls of active or inactive are those of the source. Rule as the data show it: active = GI50 up to about 1.1 µM and inactive = higher.

Key:
Test in all cases: inhibition of tumour cell growth, NCI panel, 48 h
[1] = test system: Hs-578T
[2] = test system: SK-MEL-2
[3] = test system: K562
[4] = test system: HL-60
[5] = test system: RPMI-8226
[6] = test system: HCC 2998
[7] = test system: A549
[8] = test system: Malme-3M
[9] = test system: OVCAR-4
[10] = test system: SK-MEL-5
[11] = test system: SF-539
[12] = test system: NCI-H522
[13] = test system: EKVX
[14] = test system: SK-OV-3
[15] = test system: DU-145
[16] = test system: U-251
[17] = test system: IGROV-1

Structure (SMILES) | GI50 [1] | GI50 [2] | GI50 [3] | GI50 [4] | GI50 [5] | GI50 [6] | GI50 [7] | GI50 [8] | GI50 [9] | GI50 [10] | GI50 [11] | GI50 [12] | GI50 [13] | GI50 [14] | GI50 [15] | GI50 [16] | GI50 [17]
O=C1CC(NC(=O)C(F)(F)F)c2c1csc2Br (configuration not stated) | > 100 µM (inactive) | > 100 µM (inactive) | 48.3 µM (inactive) | 53.1 µM (inactive) | 32.6 µM (inactive) | > 100 µM (inactive) | > 100 µM (inactive) | 18.8 µM (inactive) | 58.5 µM (inactive) | 64.9 µM (inactive) | 74.1 µM (inactive) | 54.6 µM (inactive) | 14.8 µM (inactive) | > 100 µM (inactive) | 2.11 µM (inactive) | > 100 µM (inactive) | > 100 µM (inactive)
Nc1c(C(=O)O)nnc2cc(Cl)c(Cl)cc12 | > 100 µM (inactive) | > 100 µM (inactive) | > 100 µM (inactive) | 57 µM (inactive) | > 100 µM (inactive) | > 100 µM (inactive) | > 100 µM (inactive) | > 100 µM (inactive) | > 100 µM (inactive) | > 100 µM (inactive) | > 100 µM (inactive) | > 100 µM (inactive) | > 100 µM (inactive) | > 100 µM (inactive) | > 100 µM (inactive) | > 100 µM (inactive) | > 100 µM (inactive)
O=C1O/C(=C\c2ccc(O)c(Br)c2)C(c2ccc(O)cc2)=C1Cl | 37.1 µM (inactive) | 40.1 µM (inactive) | 68.4 µM (inactive) | 43.6 µM (inactive) | 10.1 µM (inactive) | 39.1 µM (inactive) | 36.1 µM (inactive) | 38.5 µM (inactive) | 40 µM (inactive) | 22.4 µM (inactive) | 40.6 µM (inactive) | 26.5 µM (inactive) | 32.6 µM (inactive) | > 100 µM (inactive) | 61.1 µM (inactive) | 44.8 µM (inactive) | 55.6 µM (inactive)
O=c1c(-c2c(-c3ccccc3)oc3ccc(Cl)cc3c2=O)c(-c2ccccc2)oc2ccc(Cl)cc12 | > 49.8 µM (inactive) | > 100 µM (inactive) | > 100 µM (inactive) | 0.0302 µM (active) | > 100 µM (inactive) | > 100 µM (inactive) |  | > 100 µM (inactive) | > 100 µM (inactive) | > 100 µM (inactive) | > 100 µM (inactive) | > 100 µM (inactive) | > 43.9 µM (inactive) | > 51.4 µM (inactive) | > 100 µM (inactive) | > 100 µM (inactive) | > 56.2 µM (inactive)
O=C1C(N2CCN(c3ccccn3)CC2)=C(Cl)C(=O)c2ncccc21 | > 4.49 µM (inactive) | 2.31 µM (inactive) | 1.51 µM (inactive) | 0.105 µM (active) | 0.353 µM (active) | > 4.63 µM (inactive) | > 10 µM (inactive) | 1.3 µM (inactive) | 0.637 µM (active) | 1.79 µM (inactive) | > 10 µM (inactive) | 0.142 µM (active) | > 10 µM (inactive) | > 10 µM (inactive) | > 6.76 µM (inactive) | > 10 µM (inactive) | > 7 µM (inactive)
COC(=O)c1cc(NC(=O)Cc2c[nH]c3ccccc23)cn1C | 33.7 µM (inactive) | 81.7 µM (inactive) | 58.1 µM (inactive) | > 100 µM (inactive) | 21.3 µM (inactive) | 68.1 µM (inactive) | 70.5 µM (inactive) | 57.7 µM (inactive) | 40.4 µM (inactive) | 70.3 µM (inactive) | > 100 µM (inactive) | 36.1 µM (inactive) | > 100 µM (inactive) | > 100 µM (inactive) | > 100 µM (inactive) | 68.4 µM (inactive) | 22.5 µM (inactive)
COc1cc2c(c3oc4c(O)cccc4c(=O)c13)CC(C(C)(O)CCl)O2 (configuration not stated) | 2.03 µM (inactive) | 1.36 µM (inactive) | 0.0242 µM (active) | 0.115 µM (active) | 0.0661 µM (active) | 1.32 µM (inactive) | 2.54 µM (inactive) | 2.06 µM (inactive) | 1.45 µM (inactive) | 0.279 µM (active) | 0.443 µM (active) | 1.73 µM (inactive) | 5.52 µM (inactive) | 4.35 µM (inactive) | 2.31 µM (inactive) | 1.98 µM (inactive) | 2.03 µM (inactive)
CSC12c3cc(C)n(-c4ccc(I)cc4)c3CC(C)(C)CN1C(=O)C2Oc1ccccc1 (configuration not stated) | > 100 µM (inactive) | > 100 µM (inactive) | > 87.1 µM (inactive) | 93.3 µM (inactive) | > 71.1 µM (inactive) | > 100 µM (inactive) | > 96.4 µM (inactive) | > 100 µM (inactive) | > 100 µM (inactive) | 97.5 µM (inactive) | > 100 µM (inactive) | > 100 µM (inactive) | > 67 µM (inactive) | > 100 µM (inactive) | > 100 µM (inactive) | > 100 µM (inactive) | > 100 µM (inactive)
O=C1CSC(c2ccccc2[N+](=O)[O-])N1c1ccc(-c2ccc(-n3c(-c4ccccc4)nc4ccccc4c3=O)cc2)cc1 (configuration not stated) | > 100 µM (inactive) | > 100 µM (inactive) | 67.3 µM (inactive) | > 100 µM (inactive) | 90.2 µM (inactive) | > 100 µM (inactive) | > 100 µM (inactive) | > 100 µM (inactive) | 75.5 µM (inactive) | 42 µM (inactive) | 58.6 µM (inactive) | > 100 µM (inactive) | > 100 µM (inactive) | > 100 µM (inactive) | > 100 µM (inactive) | 42.6 µM (inactive) | 57.1 µM (inactive)
CCCC[C@H]1CCN2C[C@@H](O)[C@@H](O)[C@H]2[C@@H]1O | > 100 µM (inactive) | > 100 µM (inactive) | > 100 µM (inactive) | > 100 µM (inactive) | > 100 µM (inactive) | > 100 µM (inactive) | > 100 µM (inactive) | > 100 µM (inactive) | > 100 µM (inactive) | > 100 µM (inactive) | > 100 µM (inactive) | > 100 µM (inactive) | > 100 µM (inactive) | > 100 µM (inactive) | > 100 µM (inactive) | > 100 µM (inactive) | > 100 µM (inactive)
CSC1=NN=C(SC)NN1 | 0.161 µM (active) | 0.145 µM (active) | 0.117 µM (active) | 0.0369 µM (active) | 0.261 µM (active) | 0.378 µM (active) | 0.204 µM (active) | 0.151 µM (active) | 0.172 µM (active) | 0.182 µM (active) | 0.205 µM (active) | 0.214 µM (active) | 0.186 µM (active) | 0.186 µM (active) | 0.202 µM (active) | 0.18 µM (active) | 0.166 µM (active)
COS(C)(=O)=O [METHANESULFONIC ACID METHYL ESTER] | > 2 µM (inactive) | > 2 µM (inactive) | > 2 µM (inactive) | > 2 µM (inactive) | > 2 µM (inactive) | > 2 µM (inactive) | > 2 µM (inactive) | > 2 µM (inactive) | > 2 µM (inactive) |  | > 2 µM (inactive) | > 2 µM (inactive) | > 2 µM (inactive) | > 2 µM (inactive) | > 2 µM (inactive) | > 2 µM (inactive) | > 2 µM (inactive)
